According to patent US6150414A, “Compositions and methods for treating viral infections” (priority 1992, dated 2000):
Values joined by “and” are separate entries in the source; they are usually repeats but may differ in a detail not shown here. Equal entries are not always repeated. Where two headings read alike, the source gives them in different places.

Tested on: Friend Leukemia Virus
Test: Inhibition of Friend Leukemia Virus-induced splenomegaly in mice, compounds intraperitoneally 24 hours after virus (Example 1(a))
Assay type: in vivo, BALB/c mice
Parameters: Actual Spleen Weight / Average Spleen Weight: unit not given here
Settings: for Actual Spleen Weight: single animal; for inhibition in vivo at 0.1 mg / inhibition in vivo at 0.05 mg / inhibition in vivo at 0.2 mg: Mus musculus, ip; for Pooled Average % Inhibition: pooled over 50, 100, 200, 2 × 100 micrograms
From the text: The effects of compositions according to the present invention on infection of mammals with Friend Leukemia Virus (FV) were examined.
Friend Leukemia Virus is an aggressive retrovirus which induces an acute erythroleukemia in sensitive strains of mice such as BALB/c and NIH swiss mice as described in Friend, C. J., Exp. Med. 105: 307-324, 1957; Friend, C. et al. Proc. Natl. Acad. Sci. USA 68: 378-383, 1971; Friend, C. et al. Natl. Cancer Inst. Mongr. 22: 508-552, 1966. The malignant transformation is the result of the combined activities of the Spleen Focus Forming Virus (SFFV) and the ecotropic Murine Friend Leukemia Helper Virus (F-MuLV). The acute erythroleukemia is characterized by hepatosplenomegaly (a marked increase in the size of the spleen and liver) and a severe anemia.
Friend Leukemia Virus was prepared by homogenizing the enlarged spleen of a mouse previously infected with FV, 10 days after intravenous virus injection. The spleen was homogenized in phosphate buffered saline in a volume equal to ten times the weight of the isolated spleen.
The effects of compositions according to the present invention on the increase in spleen size (splenomegaly) of BALB/c mice (Jackson Labs, Bar Harbor, ME) was examined. In these experiments, the virus (10^6 focus forming units--FFU) was inoculated intravenously and 100 micrograms of the compounds indicated in Table II were administered to the mice intraperitoneally 24 hours later. Each compound was administered once to two mice. The animals were sacrificed ten days later and their spleens weighed.
The present assay has been developed from similar assays using hypericin or pseudohypericin and employing higher numbers of experimental animals per group (e.g. 4 animals). It was discovered however that the specificity and sensitivity of this assay are such that an experimental group of two animals is of more than adequate predictive value.
As used in Table II (and subsequent Tables of this Example l(a) and (b), "average percent inhibition" is calculated as follows: [formula] wherein "ASWNC" designates "average spleen weight of negative control"; "ASWE" designates "average spleen weight of experimental (treated) subject"; and "ASWPC" designates "average spleen weight of positive control". Average spleen weight is the numerical average of spleen weights of each experimental group (in Table II each such group includes two members).
In these experiments, the virus (10^6 focus forming units--FFU) was inoculated intravenously, and the indicated doses of the antiviral compounds of this invention were administered to the BALB/c mice intraperitoneally 24 hours later. The animals were then sacrificed ten days later and their spleens weighed.
Pseudohypericin was diluted in phosphate buffered saline with 1% ethanol.
An expanded series of experiments was next performed in which various concentrations (i.e. 50, 100, 200 and 2×100, i.e., 100 micrograms administered twice) of a different set of PAC compounds (numbers 16-29 and 30-36 in Table III below) were administered intraperitoneally each according to the same protocol described above. Compounds 16-29 all had 3-5 fused, aromatic rings and no side groups except for oxygen or hydroxyl groups, whereas compounds 30-36 all had 3 fused aromatic rings and side chains selected from the group of oxygen, hydroxyl and methyl.
When 2 doses of the compounds were given, the second dose was administered 24-48 hours after the first injection. The animals were infected and splenomegaly determined as above for the compounds in Table II. In Table III, "pooled average percent inhibition" is calculated by adding the average percent inhibition for each experiment with the same compound and dividing the sum by the number of experiments (i.e. the number 4). […]

[1] = 100 micrograms i.p. once, 24 h after FV, Table II
[2] = dose 2 × 100 (micrograms) i.p., Table III, read-out: Average Perdosage % Inhibition
[3] = dose 50 (micrograms) i.p., Table III, read-out: Average Perdosage % Inhibition
[4] = dose 100 (micrograms) i.p., Table III, read-out: Average Perdosage % Inhibition
[5] = dose 200 (micrograms) i.p., Table III, read-out: Average Perdosage % Inhibition
[6] = dose 2 × 100 (micrograms) i.p., Table III
[7] = dose 50 (micrograms) i.p., Table III
[8] = dose 100 (micrograms) i.p., Table III
[9] = dose 200 (micrograms) i.p., Table III

SMILES	Average Spleen Weight [1]	inhibition in vivo at 0.1 mg [2] [%]	inhibition in vivo at 0.05 mg [3] [%]	inhibition in vivo at 0.2 mg [5] [%]	Average Spleen Weight [6]	Average Spleen Weight [7]	Average Spleen Weight [8]	Average Spleen Weight [9]	Pooled Average % Inhibition (Table III) [%]	also measured
O=C1c2ccccc2-c2ccc3c4ccc5c6c(ccc(c7ccc1c2c73)c64)-c1ccccc1C5=O [Compound 3, Isoviolanthrone]	0.5001									Average % Inhibition [1]: 41.5%; Actual Spleen Weight [1]: 0.5147 and 0.4855
c1ccc2cc3cc4cc5ccccc5cc4cc3cc2c1 [Compound 28, Pentacene]		13	22	11	1.4102	1.2780	1.5384	1.4278	12	inhibition in vivo at 0.1 mg [4]: 4%
O=C1c2ccc(O)cc2C(=O)c2ccc(O)cc21 [Compound 32, Anthraflavic acid]		60	26	64	0.9325	1.5718	1.1542	0.8593	50	inhibition in vivo at 0.1 mg [4]: 49%
c1ccc2c(c1)c1ccccc1c1ccccc21 [Compound 19, Triphenylene]					1.4063	1.0499	1.5345	1.3994	17	inhibition in vivo at 0.1 mg (read-out: Average Perdosage % Inhibition, dose 2 × 100 (micrograms) i.p., Table III): 13%; inhibition in vivo at 0.05 mg (read-out: Average Perdosage % Inhibition, dose 50 (micrograms) i.p., Table III): 37%; inhibition in vivo at 0.1 mg (read-out: Average Perdosage % Inhibition, dose 100 (micrograms) i.p., Table III): 4%; inhibition in vivo at 0.2 mg (read-out: Average Perdosage % Inhibition, dose 200 (micrograms) i.p., Table III): 13%
c1ccc2c(c1)CCc1ccccc1-2 [Compound 20]		6	22	11	1.5023	1.2758	2.0019	1.4315	3	
c1ccc2c(c1)ccc1ccc3ccc4ccc5ccccc5c4c3c12 [Compound 14, Phenanthro(3,4-C)Phenanthrene]	0.5419									inhibition in vivo at 0.1 mg (24 h, read-out: Average % Inhibition, 100 micrograms i.p. once, 24 h after FV, Table II): 36.6%
c1cc2cccc3c2c(c1)c1c2c4cccc5cccc(c54)c2c2c4cccc5cccc(c54)c2c31 [Compound 1, Decacyclene]	0.3636									Average % Inhibition [1]: 57.5%; Actual Spleen Weight [1]: 0.3940 and 0.3331; inhibition of FV-induced splenomegaly / anti-retroviral activity (Example 1(a)): significantly inhibited FV-induced splenomegaly
